Results from patent US9981916B2 (Genentech, Inc., priority 2013, dated 2018).

target: T1, RORc ligand binding domain (Homo sapiens, UniProt P51449); experiment: In vitro RORc ligand binding assay (25-[3H]hydroxycholesterol displacement, filter binding); details: 6 nM 25-[3H]hydroxycholesterol, 0.6 ug/mL RORc receptor, 3 h at 25° C.
T1 construct: host or cells: E. coli
T1 sequence (P51449 269-508 limits assumed): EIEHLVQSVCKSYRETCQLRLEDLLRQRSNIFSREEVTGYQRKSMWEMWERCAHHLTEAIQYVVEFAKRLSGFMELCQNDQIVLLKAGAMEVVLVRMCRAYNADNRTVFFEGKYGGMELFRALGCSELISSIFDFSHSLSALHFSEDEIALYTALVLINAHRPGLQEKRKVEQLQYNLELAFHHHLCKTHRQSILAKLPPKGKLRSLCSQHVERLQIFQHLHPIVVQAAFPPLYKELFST
Outline: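 Filter-binding displacement of 6 nM 25-[3H]hydroxycholesterol from RORc receptor (0.6 ug/mL) in 50 mM HEPES pH 7.4, 150 mM NaCl, 5 mM MgCl2, 1 mM DTT, 0.01% BSA, 5% DMSO; 3 h at 25° C. NSB defined with 1 uM 25-hydroxycholesterol; scintillation counting gave Kiapp, IC50 or % inhibition (screening at 1 and 10 uM).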

SMILES | IC50 [nM]
CC1(C)[C@@H]2CC[C@@]1(COCc1ccc(C(=O)O)cc1)c1nnc(-c3ccccc3F)cc12 [Example 71, 4-({[(5S,8S)-3-(2-fluorophenyl)-9,9-dimethyl-6,7-dihydro-5,8-methanocinnolin-8(5H)-yl]methoxy}methyl) benzoic acid] | 284
CC1(C)[C@@H]2CC[C@@]1(CC#N)c1nnc(-c3ccccc3F)cc12 [Example 16] | 1550
CC1(C)[C@@H]2CC[C@@]1(C(=O)Nc1ccc(C#N)cn1)c1nnc(-c3c(F)cccc3F)cc12 [Example 205, (5S,8S)-N-(5-cyanopyridin-2-yl)-3-(2,6-difluorophenyl)-9,9-dimethyl-5,6,7,8-tetrahydro-5,8-methanocinnoline-8-carboxamide] | 2820
CNC(=O)[C@]12CC[C@H](c3cc(-c4ccccc4F)nnc31)C2(C)C [Example 334, (5S,8S)-3-(2-fluorophenyl)-N,9,9-trimethyl-5,6,7,8-tetrahydro-5,8-methanocinnoline-8-carboxamide] | 2100
Cc1cnn(C[C@]23CC[C@H](c4cc(-c5ccccc5F)nnc42)C3(C)C)c1 [Example 47, (5S,8R)-3-(2-fluorophenyl)-9,9-dimethyl-8-[(4-methyl-1H-pyrazol-1-yl)methyl]-5,6,7,8-tetrahydro-5,8-methanocinnoline] | 267
C[C@H]1COC(=O)N1C[C@@]12CC[C@@H](c3cc(-c4c(F)cccc4F)nnc31)C2(C)C [Example 295, (S)-3-(((5R,8S)-3-(2,6-difluorophenyl)-9,9-dimethyl-5,6,7,8-tetrahydro-5,8-methanocinnolin-8-yl)methyl)-4-methyloxazolidin-2-one] | 1110
CC1(C)[C@H]2CC[C@]1(C(=O)Nc1ccc(C#N)nc1)c1nnc(-c3ccccc3F)cc12 (stereo in doubt) [Example 169, (5R,8R)-N-(6-cyanopyridin-3-yl)-3-(2-fluorophenyl)-9,9-dimethyl-5,6,7,8-tetrahydro-5,8-methanocinnoline-8-carboxamide] | 3270
CC1(C)[C@@H]2CC[C@@]1(C(=O)N1CCC3(COC3)C1)c1nnc(-c3c(F)cccc3F)cc12 [Example 218, ((5S,8S)-3-(2,6-difluorophenyl)-9,9-dimethyl-5,6,7,8-tetrahydro-5,8-methanocinnolin-8-yl)(2-oxa-6-azaspiro[3.4]octan-6-yl)methanone] | 2440
CC(=O)N(CCO)C[C@@]12CC[C@@H](c3cc(-c4c(F)cccc4F)nnc31)C2(C)C [Example 289, N-(((5R,8S)-3-(2,6-difluorophenyl)-9,9-dimethyl-5,6,7,8-tetrahydro-5,8-methanocinnolin-8-yl)methyl)-N-(2-hydroxyethyl)acetamide] | 258
CC(C)(C#N)NC(=O)[C@@]12CC[C@@H](c3cc(-c4ccccc4F)nnc31)C2(C)C [Example 174, (5R,8R)-N-(2-cyanopropan-2-yl)-3-(2-fluorophenyl)-9,9-dimethyl-5,6,7,8-tetrahydro-5,8-methanocinnoline-8-carboxamide] | 3080
CONC(=O)[C@]12CC[C@H](c3cc(-c4c(F)cccc4F)nnc31)C2(C)C [Example 91, (5S,8S)-3-(2,6-difluorophenyl)-N-methoxy-9,9-dimethyl-6,7-dihydro-5,8-methanocinnoline-8(5H)-carboxamide] | 384
Cc1nnc(NC[C@@]23CC[C@@H](c4cc(-c5c(F)cccc5F)nnc42)C3(C)C)o1 [Example 144, N-(((5R,8S)-3-(2,6-difluorophenyl)-9,9-dimethyl-5,6,7,8-tetrahydro-5,8-methanocinnolin-8-yl)methyl)-5-methyl-1,3,4-oxadiazol-2-amine] | 1370
C[C@H]1CN(C[C@@]23CC[C@@H](c4cc(-c5c(F)cccc5F)nnc42)C3(C)C)C(=O)O1 [Example 315, (S)-3-(((5R,8S)-3-(2,6-difluorophenyl)-9,9-dimethyl-5,6,7,8-tetrahydro-5,8-methanocinnolin-8-yl)methyl)-5-methyloxazolidin-2-one] | 350
CC(=O)Nc1ccc(-c2cc3c(nn2)[C@@]2(C)CC[C@@H]3C2(C)C)cn1 [Example 95, N-{5-[(5R,8S)-8,9,9-trimethyl-5,6,7,8-tetrahydro-5,8-methanocinnolin-3-yl]pyridin-2-yl}acetamide] | 3320
CC1(C)[C@@H]2CC[C@@]1(C(=O)N1CC(F)(F)C1)c1nnc(-c3ccccc3F)cc12 [Example 332, (3,3-difluoroazetidin-1-yl)((5S,8S)-3-(2-fluorophenyl)-9,9-dimethyl-5,6,7,8-tetrahydro-5,8-methanocinnolin-8-yl)methanone] | 1400
CC1(C)[C@H]2CC[C@]1(CN1CC(C#N)C1)c1nnc(-c3c(F)cccc3F)cc12 [Example 326, 1-(((5R,8S)-3-(2,6-difluorophenyl)-9,9-dimethyl-5,6,7,8-tetrahydro-5,8-methanocinnolin-8-yl)methyl)azetidine-3-carbonitrile] | 1920
Cc1nnc(N(CCN(C)C)C[C@@]23CC[C@@H](c4cc(-c5c(F)cccc5F)nnc42)C3(C)C)o1 [Example 260, N1-(((5R,8S)-3-(2,6-difluorophenyl)-9,9-dimethyl-5,6,7,8-tetrahydro-5,8-methanocinnolin-8-yl)methyl)-N2,N2-dimethyl-N1-(5-methyl-1,3,4-oxadiazol-2-yl)ethane-1,2-diamine] | 3410
CNC(=O)[C@@]12CC[C@@H](c3cc(-c4ccccc4F)nnc31)C2(C)C [Example 178, (5R,8R)-3-(2-fluorophenyl)-N,9,9-trimethyl-5,6,7,8-tetrahydro-5,8-methanocinnoline-8-carboxamide] | 2050
CC1(C)[C@H]2CC[C@]1(c1ccnn1CCC#N)c1nnc(-c3c(F)cccc3F)cc12 [Example 276, 3-(5-((5R,8S)-3-(2,6-difluorophenyl)-9,9-dimethyl-5,6,7,8-tetrahydro-5,8-methanocinnolin-8-yl)-1H-pyrazol-1-yl)propanenitrile] | 466

Results, then the compound that gave them:

IC50 [nM] | SMILES
192 | CN(C)[C@@]12CC[C@@H](c3cc(-c4ccccc4F)nnc31)C2(C)C [Example 90, (5R,8R)-3-(2-fluorophenyl)-N,N,9,9-tetramethyl-6,7-dihydro-5,8-methanocinnolin-8(5H)-amine]
192 | CC1(C)[C@H]2CC[C@]1(c1nnco1)c1nnc(-c3c(F)cccc3F)cc12 [Example 101]
195 | CC1(C)[C@@H]2CC[C@@]1(c1nnc(CO)o1)c1nnc(-c3c(F)cccc3F)cc12 [Example 111, {5-[(5S,8S)-3-(2,6-difluorophenyl)-9,9-dimethyl-6,7-dihydro-5,8-methanocinnolin-8(5H)-yl]-1,3,4-oxadiazol-2-yl}methanol]
36 | CCN(C[C@@]12CC[C@@H](c3cc(-c4c(F)cccc4F)nnc31)C2(C)C)C(=O)N(C)C [Example 278, 1-(((5R,8S)-3-(2,6-difluorophenyl)-9,9-dimethyl-5,6,7,8-tetrahydro-5,8-methanocinnolin-8-yl)methyl)-1-ethyl-3,3-dimethylurea]
19 | CCN(C[C@@]12CC[C@@H](c3cc(-c4c(F)cccc4F)nnc31)C2(C)C)c1nnc(C)o1 [Example 148, N-(((5R,8S)-3-(2,6-difluorophenyl)-9,9-dimethyl-5,6,7,8-tetrahydro-5,8-methanocinnolin-8-yl)methyl)-N-ethyl-5-methyl-1,3,4-oxadiazol-2-amine]
22 | CCN(C[C@@]12CC[C@@H](c3cc(-c4c(F)cccc4F)nnc31)C2(C)C)c1nnc(CO)o1 [Example 296, (5-((((5R,8S)-3-(2,6-difluorophenyl)-9,9-dimethyl-5,6,7,8-tetrahydro-5,8-methanocinnolin-8-yl)methyl)(ethyl)amino)-1,3,4-oxadiazol-2-yl)methanol]
126 | CC1(C)[C@@H]2CC[C@@]1(C(=O)N1CCC(C#N)C1)c1nnc(-c3c(F)cccc3F)cc12 (stereo partly drawn) [Example 245, 1-((5S,8S)-3-(2,6-difluorophenyl)-9,9-dimethyl-5,6,7,8-tetrahydro-5,8-methanocinnoline-8-carbonyl)pyrrolidine-3-carbonitrile]
89 | Cc1noc(C[C@@]23CC[C@@H](c4cc(-c5c(F)cccc5F)nnc42)C3(C)C)n1 [Example 75, (5R,8R)-3-(2,6-difluorophenyl)-9,9-dimethyl-8-[(3-methyl-1,2,4-oxadiazol-5-yl)methyl]-5,6,7,8-tetrahydro-5,8-methanocinnoline]
109 | CC1(C)[C@H]2CC[C@]1(c1nnc(C3CC3)o1)c1nnc(-c3c(F)cccc3F)cc12 [Example 123, (5R,8R)-3-(2,6-difluorophenyl)-9,9-dimethyl-8-(5-cyclopropyl-1,3,4-oxadiazol-2-yl)-5,6,7,8-tetrahydro-5,8-methanocinnoline]
67 | Cc1noc([C@@]23CC[C@@H](c4cc(-c5c(F)cccc5F)nnc42)C3(C)C)n1 [Example 64, (5R,8R)-3-(2,6-difluorophenyl)-9,9-dimethyl-8-(3-methyl-1,2,4-oxadiazol-5-yl)-5,6,7,8-tetrahydro-5,8-methanocinnoline]
54 | COCC[C@]12CC[C@H](c3cc(-c4ccccc4F)nnc31)C2(C)C [Example 41, (5S,8S)-3-(2-fluorophenyl)-8-(2-methoxyethyl)-9,9-dimethyl-5,6,7,8-tetrahydro-5,8-methanocinnoline]
252 | CC1(C)[C@H]2CC[C@]1(CN1CCOCC1)c1nnc(-c3c(F)cccc3F)cc12 [Example 56, (5R,8S)-3-(2,6-difluorophenyl)-9,9-dimethyl-8-(morpholin-4-ylmethyl)-5,6,7,8-tetrahydro-5,8-methanocinnoline]
